The target in the test is T1, human insulin receptor (CHO.IR cells) (Homo sapiens, UniProt P06213).
T1 construct: host or cells: CHO.IR cells (CHO)
As to the kind of experiment: Cell-based assay for insulin receptor tyrosine kinase activity. To be noted: 20 min; CHO.IR cells treated with 100 μM of compound; read-out: reduction in tyrosine kinase activity. How it is done: CHO.IR cells overexpressing human insulin receptor were obtained from Stanford University. Approximately 1.5×10^5 cells were seeded in each well of a 96-well plate containing Hams F12 medium plus 10% fetal calf serum, fungizone, penicillin, and streptomycin. The cells were incubated at 37° C. for approximately 24 hours, allowing cells to reach confluency. The cells were then washed with phosphate buffered saline (PBS) three times and then incubated in serum-free medium at 37° C. for 2 hours. Insulin or test compounds were added to the wells and the cells were incubated for an additional 20 minutes at 37° C. The cells were washed with PBS three times and then lysed in 60 μL/well of a lysis buffer containing 50 mM HEPES, pH 7.4, 1% Triton X-100, 5 mM EDTA, 5 mM EGTA, 20 mM sodium pyrophosphate, 1 mM sodium vanadate, 20 mM sodium fluoride, 1 mg/mL Bacitracin, 150 mM sodium chloride, 2 μg/mL Aprotonin, and 1 mM PMSF. Lysates were transferred to a second 96-well plate pre-coated with monoclonal anti-insulin receptor antibody (0.2 μg/50 μL/well, in 20 mM NaHCO3, pH 9.6). The second plate was incubated at 4° C. for 16 hours to immunoabsorb insulin receptors.
CHO.IR cells were cultured at approximately 1.5×10^5 cells/well (in a 96-well plate) in a Hams F12 medium supplemented with 10% fetal calf serum, fungizone, penicillin, and streptomycin. The cells were incubated at 37° C. for 24 hours, allowing cells to reach confluency. The cells were then washed with PBS three times and then incubated in serum-free medium at 37° C. for 2 hours. Insulin or test compounds were added to the cells and incubated for an additional 20 minutes at 37° C. The cells were washed three times with PBS and lysed in the same 60 μL lysis buffer as mentioned in Example 174. Lysates were transferred to a second 96-well plate pre-coated with monoclonal anti-insulin receptor antibody (under the same conditions as those mentioned in Example 174). Lysates were incubated at 4° C. for 16 hours to immunoabsorb insulin receptors.
20 μL of a kinase reaction mixture (50 mM Hepes, pH 7.6, 150 mM NaCl, 5 mM MgCl2, 5 mM MnCl2, 0.1% Triton x-100, 1 mg/mL poly(Glu:Tyr)(4:1), 2 μCi of carrier-free [γ-^32P]ATP) was added to each well. After reacting at 25° C. for 40 minutes, the reaction mixture was transferred to a Multiscreen pH plate (Millipore, Billerica, Mass.) and unbound ATP was washed away. The insulin receptor tyrosine kinase activity was determined by detecting the radioactivities associated with the wells using a Topcount scintillation counter (Perkin-Elmer, Wellesley, Mass.).

SMILES strings stand for the structures.

T1 sequence (P06213 28-758 limits assumed): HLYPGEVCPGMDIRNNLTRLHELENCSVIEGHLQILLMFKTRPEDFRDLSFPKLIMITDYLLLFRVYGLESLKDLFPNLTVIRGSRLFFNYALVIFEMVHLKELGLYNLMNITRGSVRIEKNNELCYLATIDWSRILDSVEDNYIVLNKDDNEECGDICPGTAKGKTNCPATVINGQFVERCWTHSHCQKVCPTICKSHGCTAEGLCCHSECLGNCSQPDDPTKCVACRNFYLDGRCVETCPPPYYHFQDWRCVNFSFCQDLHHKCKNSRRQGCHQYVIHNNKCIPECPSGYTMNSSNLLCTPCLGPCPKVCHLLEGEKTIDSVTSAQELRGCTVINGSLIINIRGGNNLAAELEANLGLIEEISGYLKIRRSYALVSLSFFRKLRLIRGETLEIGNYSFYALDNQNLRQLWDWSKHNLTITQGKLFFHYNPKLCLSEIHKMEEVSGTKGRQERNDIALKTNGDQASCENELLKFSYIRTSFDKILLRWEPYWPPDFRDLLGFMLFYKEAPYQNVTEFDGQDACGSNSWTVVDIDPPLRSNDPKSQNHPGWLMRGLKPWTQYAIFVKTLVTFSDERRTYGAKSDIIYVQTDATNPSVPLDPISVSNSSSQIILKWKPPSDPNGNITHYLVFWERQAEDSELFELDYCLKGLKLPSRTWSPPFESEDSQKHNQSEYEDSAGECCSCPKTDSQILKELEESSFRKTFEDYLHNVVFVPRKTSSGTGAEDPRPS
T1 sequence (P06213 763-1382 limits assumed): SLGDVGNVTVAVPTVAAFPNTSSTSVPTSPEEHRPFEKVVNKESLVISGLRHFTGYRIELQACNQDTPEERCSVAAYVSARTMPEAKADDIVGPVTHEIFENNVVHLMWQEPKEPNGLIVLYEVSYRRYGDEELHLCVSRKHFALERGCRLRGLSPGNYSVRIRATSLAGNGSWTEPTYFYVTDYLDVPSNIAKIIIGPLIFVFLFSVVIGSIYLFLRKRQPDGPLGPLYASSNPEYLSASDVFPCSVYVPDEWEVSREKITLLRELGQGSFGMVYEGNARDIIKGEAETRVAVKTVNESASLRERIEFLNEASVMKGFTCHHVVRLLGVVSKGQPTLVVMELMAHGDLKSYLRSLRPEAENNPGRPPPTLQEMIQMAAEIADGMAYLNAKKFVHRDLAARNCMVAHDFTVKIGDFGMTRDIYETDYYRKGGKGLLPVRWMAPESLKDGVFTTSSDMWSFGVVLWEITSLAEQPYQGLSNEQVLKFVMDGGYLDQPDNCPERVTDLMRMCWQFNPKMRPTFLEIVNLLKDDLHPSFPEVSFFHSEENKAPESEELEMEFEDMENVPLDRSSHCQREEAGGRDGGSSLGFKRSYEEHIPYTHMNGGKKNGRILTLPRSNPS

With `O=C(O)c1oc(C(=O)c2c[nH]c3c(CCCO)cccc23)c(O)c1-c1c[nH]c2ccccc12` [Compound 9], the inhibition at 100 µM is 12 to 53%.

As to `O=C(O)c1oc(C(=O)c2c[nH]c3c(CCCCO)cccc23)c(O)c1-c1c[nH]c2ccccc12` [Compound 21], the inhibition at 100 µM was 12 to 53%.

With `O=C(O)c1oc(C(=O)c2c[nH]c3c(CCCCCO)cccc23)c(O)c1-c1c[nH]c2ccccc12` [Compound 30], the inhibition at 100 µM lay in the range of 12 to 53%.

As for `O=C(O)c1sc(C(=O)c2c[nH]c3c(CCCCCO)cccc23)c(O)c1-c1c[nH]c2ccccc12` [Compound 114], the inhibition at 100 µM fell in the range of 12 to 53%.

As to `O=C(O)CCc1cccc2c(C(=O)c3oc(C(=O)O)c(-c4c[nH]c5ccccc45)c3O)c[nH]c12` [Compound 170], the inhibition at 100 µM lay within 12 to 53%.

Consider `CCCCCc1cccc2c(C(=O)c3oc(C(=O)O)c(-c4c[nH]c5ccccc45)c3O)c[nH]c12` [Compound 171], for which the inhibition at 100 µM lay in the range of 12 to 53%.

Take `O=C(O)CCCCc1cccc2c(C(=O)c3oc(C(=O)O)c(-c4c[nH]c5ccccc45)c3O)c[nH]c12` [Compound 172]: the inhibition at 100 µM lay in the range of 12 to 53%.

As for `O=C(O)c1oc(C(=O)c2c[nH]c3c(CCCC(CO)CO)cccc23)c(O)c1-c1c[nH]c2ccccc12` [Compound 173], the inhibition at 100 µM lay in the range of 12 to 53%.

Values taken from patent US20060122232A1, “4-Hydroxyfuroic acid derivatives” (DEVELOPMENT CENTER FOR BIOTECHNOLOGY, priority 2004, published 2006).
